This note sets out measurements from patent US8829194B2, “Crystalline forms of the sodium salt of (4-{4-[5-(6-trifluoromethyl-pyridin-3-ylamino)-pyridin-2-yl]-phenyl}-cyclohexyl)-acetic acid” (Novartis AG, priority 2010, dated 2014).

What all share (format): physicochemical
A short description of series [1]: Water loss as a function of temperature by TG/DTA (loss on drying, thermal transitions). The settings on record: for Loss On Drying (LOD) (%): total water loss by thermogravimetry, rt-295° C., 10°/min; for LOD (thermal transitions): DTA signals, temperature at which the water is lost. An excerpt:
(ii) Thermogravimetric/Differential Thermal Analysis (TG/DTA) […]
The data listed below show the total water loss (LOD by thermogravimetry (TG)) and thermal transitions (DTA signals) show the temperature at which the water is lost.

Series [2] can be described thus: Physical stability of the crystalline forms (relative humidity, absorption-desorption isotherm FIG. 1, temperature, storage). The settings on record: absorption-desorption isotherm, FIG. 1.
Series [3] in a line: Humidity microbalance analysis (VTI), moisture sorption at 25° C. The settings on record: for hygroscopicity / moisture uptake in words: variations in humidity. From the text: Thus, Modification C retains a stable weight from 0% relative humidity to 80% relative humidity while Modification A loses water with decreasing humidity and gains moisture with increasing humidity. With Modification C, a re-hydration step and the possible variability in water content between batches may thus be eliminated.
Modification N is particularly suitable for industrial scale-up. It is a crystalline anhydrous form.
Modification O is particularly suitable for industrial scale-up. It is a crystalline anhydrous form.

Take `O=C([O-])C[C@H]1CC[C@H](c2ccc(-c3ccc(Nc4ccc(C(F)(F)F)nc4)cn3)cc2)CC1.[Na+]` [Modification B, sodium salt of (4-{4-[5-(6-trifluoromethyl-pyridin-3-ylamino)-pyridin-2-yl]-phenyl}-cyclohexyl)-acetic acid]: the “Loss On Drying (LOD) (%)” value in series [1] (listed as B) is given as 6.9%.

Turning to `O=C([O-])C[C@H]1CC[C@H](c2ccc(-c3ccc(Nc4ccc(C(F)(F)F)nc4)cn3)cc2)CC1.[Na+]` [Modification D, sodium salt of (4-{4-[5-(6-trifluoromethyl-pyridin-3-ylamino)-pyridin-2-yl]-phenyl}-cyclohexyl)-acetic acid], in series [1] (listed as D), the “LOD (thermal transitions)” value worked out at 84.5 °C and the “Loss On Drying (LOD) (%)” value is on record as 12.4%.

In the case of `O=C([O-])C[C@H]1CC[C@H](c2ccc(-c3ccc(Nc4ccc(C(F)(F)F)nc4)cn3)cc2)CC1.[Na+]` [Modification E, sodium salt of (4-{4-[5-(6-trifluoromethyl-pyridin-3-ylamino)-pyridin-2-yl]-phenyl}-cyclohexyl)-acetic acid], the “Loss On Drying (LOD) (%)” value in series [1] (listed as E) stood at 9.5%.

On to `O=C([O-])C[C@H]1CC[C@H](c2ccc(-c3ccc(Nc4ccc(C(F)(F)F)nc4)cn3)cc2)CC1.[Na+]` [Modification F, sodium salt of (4-{4-[5-(6-trifluoromethyl-pyridin-3-ylamino)-pyridin-2-yl]-phenyl}-cyclohexyl)-acetic acid], for which, in series [1] (listed as F), the “LOD (thermal transitions)” value is 90 °C and the “Loss On Drying (LOD) (%)” value stood at 3.5%.

Turning to `O=C([O-])C[C@H]1CC[C@H](c2ccc(-c3ccc(Nc4ccc(C(F)(F)F)nc4)cn3)cc2)CC1.[Na+]` [Modification G, sodium salt of (4-{4-[5-(6-trifluoromethyl-pyridin-3-ylamino)-pyridin-2-yl]-phenyl}-cyclohexyl)-acetic acid], the “Loss On Drying (LOD) (%)” value in series [1] (listed as G) is listed as 11.7%.

With `O=C([O-])C[C@H]1CC[C@H](c2ccc(-c3ccc(Nc4ccc(C(F)(F)F)nc4)cn3)cc2)CC1.[Na+]` [Modification H, sodium salt of (4-{4-[5-(6-trifluoromethyl-pyridin-3-ylamino)-pyridin-2-yl]-phenyl}-cyclohexyl)-acetic acid], in series [1] (listed as H), the “LOD (thermal transitions)” value was found to be 68.3 °C and the “Loss On Drying (LOD) (%)” value turned out to be 3%.

Regarding `O=C([O-])C[C@H]1CC[C@H](c2ccc(-c3ccc(Nc4ccc(C(F)(F)F)nc4)cn3)cc2)CC1.[Na+]` [Modification I, sodium salt of (4-{4-[5-(6-trifluoromethyl-pyridin-3-ylamino)-pyridin-2-yl]-phenyl}-cyclohexyl)-acetic acid], the “Loss On Drying (LOD) (%)” value in series [1] (listed as I) amounted to 9.5%.

In the case of `O=C([O-])C[C@H]1CC[C@H](c2ccc(-c3ccc(Nc4ccc(C(F)(F)F)nc4)cn3)cc2)CC1.[Na+]` [Modification J, sodium salt of (4-{4-[5-(6-trifluoromethyl-pyridin-3-ylamino)-pyridin-2-yl]-phenyl}-cyclohexyl)-acetic acid], the “Loss On Drying (LOD) (%)” value in series [1] (listed as J) is recorded as 3.1%.

Regarding `O=C([O-])C[C@H]1CC[C@H](c2ccc(-c3ccc(Nc4ccc(C(F)(F)F)nc4)cn3)cc2)CC1.[Na+]` [Modification L, sodium salt of (4-{4-[5-(6-trifluoromethyl-pyridin-3-ylamino)-pyridin-2-yl]-phenyl}-cyclohexyl)-acetic acid], in series [1] (listed as L), the “LOD (thermal transitions)” value stood at 65 °C and the “Loss On Drying (LOD) (%)” value was 14.9%.

`O=C([O-])C[C@H]1CC[C@H](c2ccc(-c3ccc(Nc4ccc(C(F)(F)F)nc4)cn3)cc2)CC1.[Na+]` [Modification M, sodium salt of (4-{4-[5-(6-trifluoromethyl-pyridin-3-ylamino)-pyridin-2-yl]-phenyl}-cyclohexyl)-acetic acid]: in series [1] (listed as M), the “LOD (thermal transitions)” value is “None” and the “Loss On Drying (LOD) (%)” value stood at 0%. Moreover, in series [2], the “relative humidity range in which the form is stable” value is “below 10 % relative humidity”.

Take `O=C([O-])C[C@H]1CC[C@H](c2ccc(-c3ccc(Nc4ccc(C(F)(F)F)nc4)cn3)cc2)CC1.[Na+]` [Modification N, sodium salt of (4-{4-[5-(6-trifluoromethyl-pyridin-3-ylamino)-pyridin-2-yl]-phenyl}-cyclohexyl)-acetic acid]: in series [1], the “LOD (thermal transitions)” value is reported as “None”. In series [1], the “Loss On Drying (LOD) (%)” value amounted to 0.3%. The “relative humidity at which moisture gain starts / becomes significant” value in series [3] worked out at 70 % relative humidity. For the same compound, the “Mass uptake (% water absorbed)” value in series [3] (0 % residual humidity) came out at 0.0%; in series [3] (10 % residual humidity), 0.1%; in series [3] (50 % residual humidity), 0.7%; in series [3] (60 % residual humidity) it was 0.9%; in series [3] (70 % residual humidity) it was 1.0%; in series [3] (79 % residual humidity), 3.7%. Further, the “Mass uptake (% water absorbed)” value is given as 18.2% in series [3] (90 % residual humidity) and 19.1% in series [3] (95 % residual humidity). In series [3], the “hygroscopicity / moisture uptake in words” value is recorded as “low hygroscopicity”.

In the case of `O=C([O-])C[C@H]1CC[C@H](c2ccc(-c3ccc(Nc4ccc(C(F)(F)F)nc4)cn3)cc2)CC1.[Na+]` [Modification O, sodium salt of (4-{4-[5-(6-trifluoromethyl-pyridin-3-ylamino)-pyridin-2-yl]-phenyl}-cyclohexyl)-acetic acid], the “LOD (thermal transitions)” value in series [1] is given as “None”. The “Loss On Drying (LOD) (%)” value in series [1] is 1.2%. Besides, the “relative humidity at which moisture gain starts / becomes significant” value in series [3] is recorded as 80 % relative humidity. Moreover, the “Mass uptake (% water absorbed)” value in series [3] (0 % residual humidity) is 0.0%; in series [3] (10 % residual humidity), 0.0%; in series [3] (50 % residual humidity) it was −0.5%; in series [3] (60 % residual humidity) it was −0.5%; in series [3] (70 % residual humidity), −0.5%; in series [3] (79 % residual humidity), −0.4%. In addition, the “Mass uptake (% water absorbed)” value in series [3] (90 % residual humidity) is recorded as 4.3%; in series [3] (95 % residual humidity), 13.3%. Besides, the “hygroscopicity / moisture uptake in words” value in series [3] is “low hygroscopicity”.

On to `O=C([O-])C[C@H]1CC[C@H](c2ccc(-c3ccc(Nc4ccc(C(F)(F)F)nc4)cn3)cc2)CC1.[Na+]` [Modification P, sodium salt of (4-{4-[5-(6-trifluoromethyl-pyridin-3-ylamino)-pyridin-2-yl]-phenyl}-cyclohexyl)-acetic acid], for which, in series [1] (listed as P), the “LOD (thermal transitions)” value came out at 65 °C and the “Loss On Drying (LOD) (%)” value is given as 10.9%.
